According to publication PMC11672400, “Synthesis, Spectroscopic Characterization, Structural Analysis, and Evaluation of Anti-Tumor, Antimicrobial, and Antibiofilm Activities of Halogenoaminopyrazoles Derivatives” (Antibiotics, 2024):
Converted amounts (≈) assume the structure as drawn. Like-named read-outs stand apart in the source and are kept apart here.

How the values were obtained:
[1] = MTT cell viability / cytotoxicity on normal fibroblasts; assay type: cell-based, mouse; details: mouse, NCTC clone 929 (L929) mouse fibroblast cells
Text: Merck chemicals were utilized.
Untreated cells were used as control, considered 100% viable cells.

[2] = tested on: Enterococcus faecalis ATCC29212; assay: Qualitative evaluation of antimicrobial activity (inhibition zone, spot on agar); assay type: cell-based; parameters: key: (+) inhibited bacterial growth; (-) did not inhibit bacterial growth; details: 0.06 g/2 mL DMSO, 5 µL spot
Description: (§1) For testing the antimicrobial/antibiofilm activity, the concentration of the studied compounds was identical to 0.06 g/2 mL DMSO. 0.5 Standard McFarland suspension was used, which was inoculated onto Mueller Hinton agar plates, (Remel, Lenexa, KS, USA), 5 µL of each compound was spotted and incubated overnight at 37 °C. Antimicrobial activity was observed as zones of inhibition formed around the spot.

[3] = tested on: Escherichia coli ATCC25922; assay: as above; assay type: cell-based; parameters: key: (+) inhibited bacterial growth; (-) did not inhibit bacterial growth; details: 0.06 g/2 mL DMSO, 5 µL spot
Description: as §1

[4] = tested on: Pseudomonas aeruginosa ATCC27853; assay: as above; assay type: cell-based; parameters: key: (+) inhibited bacterial growth; (-) did not inhibit bacterial growth; details: 0.06 g/2 mL DMSO, 5 µL spot
Description: as §1

[5] = tested on: Staphylococcus aureus ATCC25923; assay: as above; assay type: cell-based; parameters: key: (+) inhibited bacterial growth; (-) did not inhibit bacterial growth; details: 0.06 g/2 mL DMSO, 5 µL spot
Description: as §1

[6] = tested on: Enterococcus faecalis ATCC29212; assay: MIC by serial microdilution in liquid medium; assay type: cell-based; details: Enterococcus faecalis, ATCC29212; 24 h, 37 °C; read-out: Minimum inhibitory concentration, Enterococcus faecalis ATCC29212
Description: (§2) The minimum inhibitory concentrations (MIC) were determined by the serial microdilution method in a liquid medium (Tryptone Soy Broth), on 96-well plates. Serial binary dilutions of the compound stock solution (10 mg/mL in DMSO) were carried out in 90 µL of culture medium and 10 µL of 10^6 CFU/mL (Colony Forming Units) microbial suspension. Each test included a positive control (wells with culture medium and microbial suspension) and a negative control for medium sterility. After incubation at 37 °C for 24 h the plates were visually examined, and optical density was measured at 620 nm. […] The MIC value (µg/mL) for the chemical compound was determined by the concentration in the final well without bacterial growth. All experiments were performed in triplicate.

[7] = tested on: Escherichia coli ATCC25922; assay: MIC by serial microdilution in liquid medium; assay type: cell-based; details: 24 h, 37 °C; for MIC: Escherichia coli, ATCC25922, read-out: Minimum inhibitory concentration, Escherichia coli ATCC25922
Description: as §2

[8] = tested on: Pseudomonas aeruginosa ATCC27853; assay: MIC by serial microdilution in liquid medium; assay type: cell-based; details: Pseudomonas aeruginosa, ATCC27853; 24 h, 37 °C; read-out: Minimum inhibitory concentration, Pseudomonas aeruginosa ATCC27853
Description: as §2

[9] = tested on: Staphylococcus aureus ATCC25923; assay: MIC by serial microdilution in liquid medium; assay type: cell-based; details: 24 h, 37 °C; for MIC: Staphylococcus aureus, ATCC25923, read-out: Minimum inhibitory concentration, Staphylococcus aureus ATCC25923
Description: as §2

[10] = tested on: Staphylococcus aureus ATCC25923; assay: Antibiofilm assay (crystal violet), MBIC; assay type: cell-based; details: 24 h, 37 °C; for minimal effective concentration: Staphylococcus aureus, ATCC25923, read-out: Minimum biofilm inhibition concentration (MBIC), Staphylococcus aureus ATCC25923
Description: (§3) Microorganisms were grown in 96-well plates filled with nutrient broth along with test substances, followed by incubation at 37 °C for 24 h. Plates were cleaned and rinsed thrice using SPW solution (sterile physiological water). After that, the attached cells were treated with 110 μL of methanol for 5 min, and then the methanol was removed by turning it upside down. […] Once stained, the solution was removed, and the plates were washed with running tap water. […] The antimicrobial/antibiofilm activity of the compounds was evaluated against two antibiotics, commercial formulations of metronidazole and nitrofurantoin.

[11] = tested on: HEp-2 epithelial tumor cells; assay: MTT cell viability / anti-tumor activity; details: Homo sapiens, read-out: Cell viability on Hep2 cells (%)
[12] = tested on: Enterococcus faecalis ATCC29212; assay: Antibiofilm assay (crystal violet), MBIC; assay type: cell-based; details: Enterococcus faecalis, ATCC29212, 24 h, 37 °C, read-out: Minimum biofilm inhibition concentration (MBIC), Enterococcus faecalis ATCC29212
Description: as §3

[13] = tested on: Escherichia coli ATCC25922; assay: Antibiofilm assay (crystal violet), MBIC; assay type: cell-based; details: 37 °C; for minimal effective concentration: Escherichia coli, ATCC25922, 24 h, read-out: Minimum biofilm inhibition concentration (MBIC), Escherichia coli ATCC25922
Description: as §3

[14] = tested on: Pseudomonas aeruginosa ATCC27853; assay: Antibiofilm assay (crystal violet), MBIC; assay type: cell-based; details: 37 °C; for minimal effective concentration: Pseudomonas aeruginosa, ATCC27853, 24 h, read-out: Minimum biofilm inhibition concentration (MBIC), Pseudomonas aeruginosa ATCC27853
Description: as §3

Row | Compound | viability at 24 h, 3.1 µg/mL [1] | viability at 48 h, 3.1 µg/mL [1] | viability at 24 h, 6.25 µg/mL [1] | viability at 48 h, 6.25 µg/mL [1] | viability at 24 h, 12.5 µg/mL [1] | viability at 48 h, 12.5 µg/mL [1] | viability at 24 h, 25 µg/mL [1] | viability at 48 h, 25 µg/mL [1] | viability at 24 h, 50 µg/mL [1] | Qualitative antimicrobial activity, Enterococcus faecalis ATCC29212 [2] | Qualitative antimicrobial activity, Escherichia coli ATCC25922 [3] | Qualitative antimicrobial activity, Pseudomonas aeruginosa ATCC27853 [4] | Qualitative antimicrobial activity, Staphylococcus aureus ATCC25923 [5] | MIC [6] | MIC [7] | MIC [8] | MIC [9] | minimal effective concentration [10] | minimal effective concentration [13] | minimal effective concentration [14] | other results
1 | Cc1nn(CNc2cccc(Cl)c2)c(C)c1[N+](=O)[O-] [4e, N-[(3,5-dimetyl-4-nitro-1H-pyrazol-1-yl)-methyl]-3-chloroaniline] | 93.1 ± 2.76% | 89.5 ± 2.24% | 94.3 ± 2.92% | 98.3 ± 2.03% | 97.8 ± 0.99% | 93.2 ± 2.94% | 95.6 ± 2.19% | 92.2 ± 0.89% | 63.5 ± 3.18% | - | + | + | + | 930 ± 0.02 µg/mL (≈ 3310 µM) | 460 µg/mL (≈ 1640 µM) | 930 ± 0.53 µg/mL (≈ 3310 µM) | 460 µg/mL (≈ 1640 µM) | 460 µg/mL |  |  | viability at 48 h, 50 µg/mL [1]: 63.2 ± 2.56%; Minimum inhibitory concentration, Escherichia coli ATCC25922 [7]: 460 ± 0.52 µg/mL (≈ 1640 µM); Minimum inhibitory concentration, Staphylococcus aureus ATCC25923 [9]: 460 ± 0.03 µg/mL (≈ 1640 µM); Minimum biofilm inhibition concentration (MBIC), Staphylococcus aureus ATCC25923 [10]: 460 ± 0.04 µg/mL; melting point: 110 to 111 °C; viability at 3.1 µg/mL ([11]; HEp-2, 24 h): 106.5 ± 0.73%; viability at 6.25 µg/mL ([11]; HEp-2, 24 h): 103.7 ± 0.28%; viability at 12.5 µg/mL ([11]; HEp-2, 24 h): 99.7 ± 0.32%; viability at 25 µg/mL ([11]; HEp-2, 24 h): 89.15 ± 0.88%; viability at 50 µg/mL ([11]; HEp-2, 24 h): 56.46 ± 0.42%; viability at 3.1 µg/mL ([11]; HEp-2, 48 h): 98.1 ± 2.88%; viability at 6.25 µg/mL ([11]; HEp-2, 48 h): 97.1 ± 1.78%; viability at 12.5 µg/mL ([11]; HEp-2, 48 h): 94.8 ± 2.84%; viability at 25 µg/mL ([11]; HEp-2, 48 h): 81.7 ± 2.38%; viability at 50 µg/mL ([11]; HEp-2, 48 h): 54.9 ± 2.76%
2 | Cc1ncc([N+](=O)[O-])n1CCO [Metronidazole, metronidazole, reference compound] |  |  |  |  |  |  |  |  |  | + | + | + | + | 970 ± 0.17 µg/mL (≈ 5670 µM) | 1950 ± 0.05 µg/mL (≈ 11400 µM) | 1562 ± 0.03 µg/mL (≈ 9130 µM) | 1950 ± 0.05 µg/mL (≈ 11400 µM) | 1950 ± 0.09 µg/mL | 1950 ± 0.04 µg/mL | 1562 ± 0.11 µg/mL | minimal effective concentration [12]: 970 ± 0.21 µg/mL
3 | Cc1nn(CNc2ccccc2Cl)c(C)c1[N+](=O)[O-] [4f, N-[(3,5-dimetyl-4-nitro-1H-pyrazol-1-yl)-methyl]-2-chloroaniline] | 107 ± 1.61% | 99.6 ± 1.2% | 108 ± 1.6% | 106 ± 1.7% | 103 ± 1.05% | 103.1 ± 0.68% | 93.7 ± 2.77% | 97.8 ± 2.35% | 87.7 ± 1.77% | - | + | + | + | 930 ± 0.04 µg/mL (≈ 3310 µM) | 460 µg/mL (≈ 1640 µM) | 460 ± 0.03 µg/mL (≈ 1640 µM) | 460 µg/mL (≈ 1640 µM) | 460 µg/mL | 460 µg/mL | 460 µg/mL | viability at 48 h, 50 µg/mL [1]: 80.5 ± 1.16%; Minimum inhibitory concentration, Escherichia coli ATCC25922 [7]: 460 ± 0.02 µg/mL (≈ 1640 µM); Minimum inhibitory concentration, Staphylococcus aureus ATCC25923 [9]: 460 ± 0.01 µg/mL (≈ 1640 µM); Minimum biofilm inhibition concentration (MBIC), Escherichia coli ATCC25922 ([13]; 24 h): 460 ± 0.02 µg/mL; Minimum biofilm inhibition concentration (MBIC), Pseudomonas aeruginosa ATCC27853 ([14]; 24 h): 460 ± 0.01 µg/mL; Minimum biofilm inhibition concentration (MBIC), Staphylococcus aureus ATCC25923 [10]: 460 ± 0.02 µg/mL; melting point: 134 to 135 °C; viability at 3.1 µg/mL ([11]; HEp-2, 24 h): 98.3 ± 1.16%; viability at 6.25 µg/mL ([11]; HEp-2, 24 h): 98.61 ± 0.72%; viability at 12.5 µg/mL ([11]; HEp-2, 24 h): 95.5 ± 2.45%; viability at 25 µg/mL ([11]; HEp-2, 24 h): 94.3 ± 2.78%; viability at 50 µg/mL ([11]; HEp-2, 24 h): 93.9 ± 1.03%; viability at 3.1 µg/mL ([11]; HEp-2, 48 h): 98.3 ± 3.38%; viability at 6.25 µg/mL ([11]; HEp-2, 48 h): 97.74 ± 0.62%; viability at 12.5 µg/mL ([11]; HEp-2, 48 h): 93.63 ± 0.75%; viability at 25 µg/mL ([11]; HEp-2, 48 h): 86 ± 0.93%; viability at 50 µg/mL ([11]; HEp-2, 48 h): 72.8 ± 2.33%
4 | O=C1CN(/N=C/c2ccc([N+](=O)[O-])o2)C(=O)N1 [Nitrofurantoin, nitrofurantoin, reference compound] |  |  |  |  |  |  |  |  |  | + | + | + | + | 600 ± 0.12 µg/mL (≈ 2520 µM) | 600 ± 0.02 µg/mL (≈ 2520 µM) | 3571 ± 0.08 µg/mL (≈ 15000 µM) | 600 ± 0.04 µg/mL (≈ 2520 µM) | 2230 ± 0.13 µg/mL | 600 ± 0.03 µg/mL | 550 ± 0.23 µg/mL | minimal effective concentration [12]: 600 ± 0.17 µg/mL
